Patent publication US20170233413A1, “SUBSTITUTED ANNULATED PYRIMIDINES AND USE THEREOF” (Bayer Pharma Aktiengesellschaft, priority 2014, published 2017)

Tests used:
[1] = biological target: T1, human phosphodiesterase 5 (PDE 5) (Homo sapiens, UniProt O76074); assay: Inhibition of human phosphodiesterase 5 (PDE 5); type: biochemical; conditions: PDE 5 preparation from human platelets; in some cases means of individual determinations
T1 construct: PDE 5 preparations are obtained from human platelets by disruption; from tissue; host or cells: human platelets
Method in brief: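 IC50 comes from percent inhibition over a 1:3 series with final levels of 4 to 0.0018 μM. Reaction: tritiated cGMP tracer (0.025 μCi) with platelet-derived, Mono Q-purified enzyme, 1 h at room temperature in Tris pH 7.5, under 70% turnover. Read-out by scintillation proximity beads.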

[2] = biological target: T2, recombinant guanylate cyclase reporter cell line (Rattus norvegicus, UniProt P19686+P20595); assay: Effect on a recombinant guanylate cyclase reporter cell line; type: cell-based; conditions: MEC = minimum effective concentration; in some cases means of individual determinations
T2 construct: expressed in transfected cells
T2 sequence (P19686 1-690): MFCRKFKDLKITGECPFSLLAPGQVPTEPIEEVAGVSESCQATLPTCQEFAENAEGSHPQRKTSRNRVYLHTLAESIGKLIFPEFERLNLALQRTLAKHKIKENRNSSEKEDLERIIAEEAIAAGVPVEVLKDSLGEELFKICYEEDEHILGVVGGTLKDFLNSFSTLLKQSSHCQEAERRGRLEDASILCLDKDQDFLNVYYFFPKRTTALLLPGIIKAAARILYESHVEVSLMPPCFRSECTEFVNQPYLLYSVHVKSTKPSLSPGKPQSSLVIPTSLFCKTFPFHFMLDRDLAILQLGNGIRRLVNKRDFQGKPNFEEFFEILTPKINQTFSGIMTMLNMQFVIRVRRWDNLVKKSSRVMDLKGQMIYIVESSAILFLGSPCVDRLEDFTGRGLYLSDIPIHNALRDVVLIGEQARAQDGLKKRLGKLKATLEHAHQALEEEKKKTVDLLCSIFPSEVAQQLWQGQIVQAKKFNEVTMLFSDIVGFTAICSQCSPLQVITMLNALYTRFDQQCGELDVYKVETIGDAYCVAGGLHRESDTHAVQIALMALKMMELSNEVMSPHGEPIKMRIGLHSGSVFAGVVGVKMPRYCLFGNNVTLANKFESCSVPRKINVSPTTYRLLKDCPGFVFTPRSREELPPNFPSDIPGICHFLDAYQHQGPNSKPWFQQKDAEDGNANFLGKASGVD
T2 sequence (P20595 1-619): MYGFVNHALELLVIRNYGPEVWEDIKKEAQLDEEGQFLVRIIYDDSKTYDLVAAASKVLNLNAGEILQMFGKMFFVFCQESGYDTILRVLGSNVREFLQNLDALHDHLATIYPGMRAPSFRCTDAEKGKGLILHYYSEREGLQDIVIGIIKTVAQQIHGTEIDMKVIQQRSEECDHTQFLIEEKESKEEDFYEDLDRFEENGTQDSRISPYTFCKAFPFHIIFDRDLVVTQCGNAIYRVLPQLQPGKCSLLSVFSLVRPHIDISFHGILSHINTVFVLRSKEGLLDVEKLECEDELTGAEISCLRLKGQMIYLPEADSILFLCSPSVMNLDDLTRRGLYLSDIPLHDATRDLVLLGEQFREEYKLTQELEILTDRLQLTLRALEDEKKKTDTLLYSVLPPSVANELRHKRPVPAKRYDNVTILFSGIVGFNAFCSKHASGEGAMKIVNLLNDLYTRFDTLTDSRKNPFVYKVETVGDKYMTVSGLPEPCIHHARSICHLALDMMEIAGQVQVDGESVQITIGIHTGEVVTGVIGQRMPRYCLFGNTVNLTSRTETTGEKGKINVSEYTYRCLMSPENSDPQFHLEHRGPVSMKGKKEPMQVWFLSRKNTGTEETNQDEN
Method in brief: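 Values are reported as MEC, sometimes averaged over individual determinations. The test system is a reporter cell line expressing recombinant rat guanylate cyclase.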

| Structure (SMILES) | IC50 [1] | MEC [2] |
| --- | --- | --- |
| Cc1nc2c(cc1F)c(-c1nc3c(c(C(N)=O)n1)C(C)(C)C(=O)N3)nn2Cc1cccc(F)c1F [Example 4, 2-[1-(2,3-Difluorobenzyl)-5-fluoro-6-methyl-1H-pyrazolo[3,4-b]pyridin-3-yl]-5,5-dimethyl-6-oxo-6,7-dihydro-5H-pyrrolo[2,3-d]pyrimidine-4-carboxamide] | 110 nM | 0.2 µM |
| Cc1nc2c(cc1F)c(-c1nc3c(c(C(N)=O)n1)C(C)(C)C(=O)N3)nn2Cc1ccccc1F [Example 5, 2-[5-Fluoro-1-(2-fluorobenzyl)-6-methyl-1H-pyrazolo[3,4-b]pyridin-3-yl]-5,5-dimethyl-6-oxo-6,7-dihydro-5H-pyrrolo[2,3-d]pyrimidine-4-carboxamide] | 86 nM | 0.3 µM |
| Cc1nc2c(cc1F)c(-c1nc3c(c(C(N)=O)n1)C(C)(C)C(=O)N3)nn2Cc1c(F)ccc(F)c1F [Example 6, 2-[5-Fluoro-6-methyl-1-(2,3,6-trifluorobenzyl)-1H-pyrazolo[3,4-b]pyridin-3-yl]-5,5-dimethyl-6-oxo-6,7-dihydro-5H-pyrrolo[2,3-d]pyrimidine-4-carboxamide] | 140 nM | 0.2 µM |
| Cc1nc2c(cc1F)c(-c1nc3c(c(C(N)=O)n1)C(C)(C)C(=O)N3)nn2Cc1ncccc1F [Example 7, 2-{5-Fluoro-1-[(3-fluoropyridin-2-yl)methyl]-6-methyl-1H-pyrazolo[3,4-b]pyridin-3-yl}-5,5-dimethyl-6-oxo-6,7-dihydro-5H-pyrrolo[2,3-d]pyrimidine-4-carboxamide] | 130 nM | 3 µM |
| CC1(C)C(=O)Nc2nc(-c3nn(Cc4ncccc4F)c4ncc(F)cc34)nc(C(N)=O)c21 [Example 8, 2-{5-fluoro-1-[(3-fluoropyridin-2-yl)methyl]-1H-pyrazolo[3,4-b]pyridin-3-yl}-5,5-dimethyl-6-oxo-6,7-dihydro-5H-pyrrolo[2,3-d]pyrimidine-4-carboxamide] | 81 nM | 2 µM |
| CC1(C)C(=O)Nc2nc(-c3nn(Cc4ccccc4F)c4ncccc34)nc(C(=O)NC3CC3)c21 [Example 24, N-Cyclopropyl-2-[1-(2-fluorobenzyl)-1H-pyrazolo[3,4-b]pyridin-3-yl]-5,5-dimethyl-6-oxo-6,7-dihydro-5H-pyrrolo[2,3-d]pyrimidine-4-carboxamide] | 3.5 nM | 0.1 µM |
| CC(C)(O)CNC(=O)c1nc(-c2nn(Cc3ccccc3F)c3ncccc23)nc2c1C(C)(C)C(=O)N2 [Example 25] | 2 nM | 0.3 µM |
| CC1(C)C(=O)Nc2nc(-c3nn(Cc4ccccc4F)c4ncccc34)nc(C(=O)N3CCC(O)C3)c21 (centres unmarked) [Example 26] | 930 nM | 0.3 µM |
| CC1(C)C(=O)Nc2nc(-c3nn(Cc4ccccc4F)c4ncc(F)cc34)nc(C(=O)NCC3(O)CC3)c21 [Example 27, 2-[5-Fluoro-1-(2-fluorobenzyl)-1H-pyrazolo[3,4-b]pyridin-3-yl]-N-[(1-hydroxycyclopropyl)methyl]-5,5-dimethyl-6-oxo-6,7-dihydro-5H-pyrrolo[2,3-d]pyrimidine-4-carboxamide] | 51 nM | 0.1 µM |
| CC1(C)C(=O)Nc2nc(-c3nn(Cc4ccccc4F)c4ncc(F)cc34)nc(C(=O)NC3CC3)c21 [Example 28] | 5.2 nM | 0.03 µM |
| CC(C)(O)CNC(=O)c1nc(-c2nn(Cc3ccccc3F)c3ncc(F)cc23)nc2c1C(C)(C)C(=O)N2 [Example 29] | 12 nM | 0.3 µM |
| CC(C)(N)CNC(=O)c1nc(-c2nn(Cc3ccccc3F)c3ncc(F)cc23)nc2c1C(C)(C)C(=O)N2 [Example 30] | 310 nM | 1 µM |
| CC1(C)C(=O)Nc2nc(-c3nn(Cc4ccccc4F)c4ncc(F)cc34)nc(C(=O)NC3(C#N)CC3)c21 [Example 31] | 10 nM | 0.1 µM |
| CC1(C)C(=O)Nc2nc(-c3nn(Cc4ncccc4F)c4ncc(F)cc34)nc(C(=O)NC3CC3)c21 [Example 32] | 12 nM | 1 µM |
| CN(CC1CC1)C(=O)c1nc(-c2nn(Cc3ncccc3F)c3ncc(F)cc23)nc2c1C(C)(C)C(=O)N2 [Example 33] | 110 nM | 0.1 µM |
| CC1(C)C(=O)Nc2nc(-c3nn(Cc4ncccc4F)c4ncc(F)cc34)nc(C(=O)NC(C3CC3)C3CC3)c21 [Example 34] | 77 nM | 1 µM |

| Structure (SMILES) | IC50 [1] | MEC [2] |
| --- | --- | --- |
| CN(CCO)C(=O)c1nc(-c2nn(Cc3ncccc3F)c3ncc(F)cc23)nc2c1C(C)(C)C(=O)N2 [Example 35] | 1300 nM | 10 µM |
| COCCNC(=O)c1nc(-c2nn(Cc3ncccc3F)c3ncc(F)cc23)nc2c1C(C)(C)C(=O)N2 [Example 36] | 73 nM | 3 µM |
| Cc1nc2c(cc1F)c(-c1nc3c(c(C(=O)NC4CC4)n1)C(C)(C)C(=O)N3)nn2Cc1cccc(F)c1F [Example 37] | 4 nM | 0.1 µM |
| Cc1nc2c(cc1F)c(-c1nc3c(c(C(=O)N(C)CC4CC4)n1)C(C)(C)C(=O)N3)nn2Cc1cccc(F)c1F [Example 38] | 770 nM | 0.01 µM |
| Cc1nc2c(cc1F)c(-c1nc3c(c(C(=O)NC(C4CC4)C4CC4)n1)C(C)(C)C(=O)N3)nn2Cc1cccc(F)c1F [Example 39] | 34 nM | 0.3 µM |
| Cc1nc2c(cc1F)c(-c1nc3c(c(C(=O)N(C)CCO)n1)C(C)(C)C(=O)N3)nn2Cc1cccc(F)c1F [Example 40] | 240 nM | 0.03 µM |
| COCCNC(=O)c1nc(-c2nn(Cc3cccc(F)c3F)c3nc(C)c(F)cc23)nc2c1C(C)(C)C(=O)N2 [Example 41] | 88 nM | 0.065 µM |
| CC1(C)C(=O)Nc2nc(-c3nn(Cc4ccccc4F)c4cc(Cl)ccc34)nc(C(=O)NCC3CC3)c21 [Example 42, 2-[6-Chloro-1-(2-fluorobenzyl)-1H-indazol-3-yl]-N-(cyclopropylmethyl)-5,5-dimethyl-6-oxo-6,7-dihydro-5H-pyrrolo[2,3-d]pyrimidine-4-carboxamide] | 74 nM | 0.3 µM |
| CC1(C)C(=O)Nc2nc(-c3nn(Cc4ccccc4F)c4cc(Cl)ccc34)nc(C(=O)NC3CC3)c21 [Example 43] | 14 nM | 0.3 µM |
| CC1(C)C(=O)Nc2nc(-c3nn(Cc4ccccc4F)c4cc(Cl)ccc34)nc(C(=O)NCC(F)(F)F)c21 [Example 44] | 110 nM | 0.3 µM |
| CC1(C)C(=O)Nc2nc(-c3nn(Cc4ccccc4F)c4cc(Cl)ccc34)nc(C(=O)NCCC(F)(F)F)c21 [Example 45] | 130 nM | 0.3 µM |
| CN(C(=O)c1nc(-c2nn(Cc3ccccc3F)c3cc(Cl)ccc23)nc2c1C(C)(C)C(=O)N2)C1CC1 [Example 46] | 1000 nM | 0.03 µM |
| CN(CC1CC1)C(=O)c1nc(-c2nn(Cc3ccccc3F)c3cc(Cl)ccc23)nc2c1C(C)(C)C(=O)N2 [Example 47] | 730 nM | 0.03 µM |
| CC1(C)C(=O)Nc2nc(-c3nn(Cc4ccccc4F)c4cc(Cl)ccc34)nc(C(=O)N3CCCC3)c21 [Example 48] | 1100 nM | 0.1 µM |
| CC1(C)C(=O)Nc2nc(-c3nn(Cc4ccccc4F)c4ncc(F)cc34)nc(C(=O)NCC3CC3)c21 [Example 49] | 33 nM | 0.1 µM |
